Measurements: patent US6787161B2, “Anti-cancer compounds” (Peplin Biotech Pty. Ltd., priority 1997, dated 2004)

Tests used:
MM96L cells = test: Effect of betaines on MM96L cell numbers; type: cell-based, human; set-up: key to cell numbers rating and morphology: +++ = no effect; − = complete cell death; *d = indicates change to dendritic morphology of the cells; conditions: 4 days
Method: Betaines of different types were solubilised in sterile MilliQ™ water to a final concentration of 1 mg/ml, and diluted into 0.1 ml tissue culture medium containing 5000 MM96L cells as described previously. Cells were scored after 4 days incubation.

MM96L melanoma cell line = test: MM96L assay of chromatographic fractions (cell inhibition, reversion to dendritic appearance); type: cell-based, human; conditions: at 1 in 5×10^6 dilution
Method: Fractions were dried by vacuum centrifugation, reconstituted in 500 μl PBS, and assayed against MM96L cells and in the metallothionein reporter assay as described above. Fractions 13 to 28 all induced complete reversion of MM96L cells to a dendritic appearance, but cell death was not observed. The effect was much more striking in the reporter assay, in which activity was still observed at a dilution of 1/10,000 (i.e. at a final concentration in the culture of 1/100,000).
Fractions 14 and 15 from the HPLC subfractionation described in Example 7 and FIG. 3 were further purified by repeated chromatography, selecting the dominant symmetrical peak with constant diode array spectra (e.g. fractions 14 and 15; results for fraction 14 are shown in FIGS. 4 and 5). Activity of the purified fractions in causing reversion of MM96L to the dendritic appearance was confirmed by cell assay.
(a) The ether-soluble fraction, prepared as in Example 7, was reconstituted in ethylene glycol dimethyl ether (DME) and chromatographed on 20×20 cm silica gel plates, using chloroform:ethyl acetate (82:18) as the developing solvent (FIG. 7). The plate was viewed on a UV light box and the UV positive bands were identified, excised from the gel, eluted with DME, and tested for inhibitory activity and morphology reversal against MM96L melanoma cell line. […]

Molecule | cell numbers rating and morphology (MM96L cells; dilution 1/50 of 1 mg/ml) | cell numbers rating and morphology (MM96L cells; dilution 1/500 of 1 mg/ml) | cell numbers rating and morphology (MM96L cells; dilution 1/5,000 of 1 mg/ml) | final concentration at which cell numbers were depressed or inhibited (MM96L cells) [µg/mL] | final concentration active in reversion to complete dendritic morphology (MM96L melanoma cell line) [ng/ml]
C[N+]1(C)CCC[C@H]1C(=O)[O-] [stachydrine (proline betaine), free base, stachydrine (proline betaine)] | +++ | +++ | +++ |  | 
C[N+](C)(C)CC(=O)[O-] [glycine betaine] | +++ | +++ | +++ |  | 
C[N+](C)(C)CCC(=O)O.[Cl-] [β-alanine betaine hydrochloride] | ++d | +++ | +++ | 20 | 
CN1C[C@@H](O)C[C@@H]1C(=O)O [t-4-hydroxy N-methyl proline, free base, t-4-hydroxy N-methyl proline] | +++ | +++ | +++ |  | 
CN1CC[C@@H](O)[C@@H]1C(=O)O [t-3-hydroxy N-methyl proline, free base, t-3-hydroxy N-methyl proline] | +++ | +++ | +++ |  | 
C[N+]1(C)C[C@H](O)C[C@H]1C(=O)[O-] [t-4 hydroxy N,N-dimethyl proline] | +pd | +++ | +++ | 20 | 
20-acetyl-ingenol-3-angelate |  |  |  |  | 1
CN1CCC[C@H]1C(=O)O [N-methyl proline, free base, N-methyl proline] | +++ | +++ | +++ |  | 
